Source: patent publication US20230000829A1, “COMPOSITION FOR SLEEP IMPROVEMENT COMPRISING ERGOTHIONEINE OR SALT THEREOF” (priority 2019, published 2023)
“Also recorded” adds a separate entry of the source.

Experiments:
[1] = tested on: male and female adults feeling stressed on a daily basis and dissatisfied with their sleep; test: Sleep quality evaluation test for humans (electroencephalograph SLEEPSCOPE); type: in vivo, human; conditions: 20 mg capsule daily for four weeks
Protocol: (§1) In order to examine a sleep improving effect such as a sleep quality-improving effect of a supplement containing ergothioneine, male and female adults feeling stressed on a daily basis and dissatisfied with their sleep (test food group: 46 subjects; control food group: 46 subjects; 92 subjects in total) were subjected to a placebo-controlled, randomized, double-blind, parallel-group comparative study in which one capsule containing 20 mg of L-ergothioneine (test food) or one capsule not containing L-ergothioneine (control food) was ingested daily for four weeks. The sleep quality and sleep duration were evaluated by measuring brain waves during sleep using an electroencephalograph “SLEEPSCOPE” (product name) available from SleepWell Co., Ltd. A 2-sample t-test (**: p<0.01, *: p<0.05, t: p<0.1, vs. control food group) was performed for significance testing between the groups.
Two types of food indistinguishable in terms of appearance, flavor, and the like were used for evaluation. • Test food: capsule containing a test substance (L-ergothioneine 20 mg) • Control food: capsule not containing a test substance
Each type of food for evaluation contained raw materials such as dextrin, hydroxypropyl cellulose, carrageenan, potassium chloride, and titanium oxide, in addition to the test substance. The control food was produced using the same raw materials used in the test food, except that the test substance (L-ergothioneine) was not added.
(§2) Brain waves during sleep were measured before the start of ingestion of the food for evaluation (pre-test) and after four weeks of ingestion of the food. The pre-test measurement of brain waves was regarded as “pre-examination”, and the measurement of brain waves after four weeks of ingestion of the food for evaluation was regarded as “week 4 examination”. The L-ergothioneine concentration (μM) in blood of each subject was also measured at the pre-examination and at the week 4 examination.
NREM sleep is divided into three stages 1 to 3 according to sleep depth by measuring brain waves using an electroencephalograph “SLEEPSCOPE” available from SleepWell Co., Ltd.
Ratio (%) of each sleep stage (NREM sleep stage 1, 2, or 3) to total sleep time; number of wake after sleep onset (frequency); number of wake after sleep onset in two hours before waking up (frequency), NREM sleep latency (min); 5 power in the first sleep cycle (delta power during NREM sleep in the first sleep cycle) (μV^2); and sleep efficiency (%).
FIGS. 4 to 19 show results of main evaluation items for sleep quality (ratio of total time of each sleep stage to total sleep time; number of wake after sleep onset; number of wake after sleep onset in two hours before waking up; NREM sleep latency; 5 (delta) power in the first sleep cycle, and sleep efficiency) and sleep duration, as determined by measuring brain waves. FIGS. 4 to 19 show the measured values and the amount of change between measurements at the pre-examination and at the week 4 examination (**: p<0.01, *: p<0.05, †: p<0.1, vs. control food group). The amount of change is a value obtained by subtracting the measured value at the pre-examination from the measured value at the week 4 examination (“measured value at week 4 examination”−“measured value at pre-examination”). The results shown in FIG. 4 to FIG. 20 are presented in means±standard error for each group. A 2-sample t-test (**: p<0.01, *: p<0.05, †: p<0.1, vs. control food group) was performed for significance testing between the groups. In FIG. 4, FIG. 5, FIG. 6, FIG. 8, FIG. 10, FIG. 12, FIG. 14, FIG. 16, FIG. 18, and FIG. 20, “Pre.” refers to the pre-examination, and “Post.” refers to the week 4 examination. The solid lines represent the test food group, and the dashed lines represent the control food group. In FIG. 7, FIG. 9, FIG. 11, FIG. 13, FIG. 15, FIG. 17, and FIG. 19, the black bars represent the test food group, and the white bars represent the control food group.

Sprague-Dawley (SD) rat = test: Stress sleep disorder model, brain waves during sleep; type: in vivo; conditions: stress-induced rats, oral about 20 mg per 1 kg body weight per day
Protocol: The following method was used to induce stress in rats in an ergothioneine administration group (N=5) and a non-administration group (N=7). During the test period, the rats were kept under a 12-hour light-dark cycle. A Sprague-Dawley (SD) rat (8 weeks of age) was introduced into a cage where a larger and highly aggressive Brown-Norway (BN) rat was kept. These two rats were housed together for 10 minutes to make sure contact (direct contact) between the rats as the BN rat chasing after or hovering over the SD rat. Then, the SD rat and the BN rat were kept together for 24 hours in a breeding cage having compartments separated by a transparent perforated partition (indirect contact). Stress was induced in the SD rat in the same manner on the following day. A BM rat different from the one on the preceding day was used as a stressor. Stress was induced once a day for five consecutive days (from Monday to Friday), and then only indirect contact was allowed for two days on the weekend. This process was repeated for two cycles. Thus, stress induction under conditions combining direct contact and indirect contact was performed 10 times in total, and stress was induced for 12 days in total. The ergothioneine administration group was orally administered with L-ergothioneine from seven days before stress induction to the end of stress induction. L-ergothioneine was used in the form of an aqueous solution of L-ergothioneine dissolved in water (L-ergothioneine concentration: 0.25 mg/mL). The dosage of L-ergothioneine was about 20 mg per 1 kg body weight per day. The non-administration group was orally administered with water instead of the aqueous L-ergothioneine solution. The control (stress (−)) group (N=4) was orally administered with water without the stress induction. Electrodes were implanted in the rats to record brain waves, and brain waves during sleep and wakefulness were recorded for 24 hours after the end of stress induction. NREM sleep, REM sleep, and awake state were determined from the brain waves using biological signal analysis software Spike2 (available from CED), and the duration of episode of each of these states was calculated. Tukey's multiple comparisons test (*: p<0.05, **: p<0.005, ****: p<0.0001) was performed for significance testing.

[2] = L-ergothioneine concentration in plasma of human subjects; type: in vivo; conditions: 20 mg capsule daily for four weeks, week 4 vs pre-examination and control food group, FIG. 20
Protocol: as §1, §2

[3] = light phase, vs non-administration group, FIG. 1

C[N+](C)(C)[C@@H](Cc1c[nH]c(=S)[nH]1)C(=O)[O-] [L-ergothioneine]
number and duration of wake after sleep onset [1]: reduced the number and duration of wake after sleep onset | ratio of NREM sleep duration (total of stages 1 to 3) to total sleep time ([1]; vs control food group): increased the ratio of NREM sleep duration to total sleep time | sleep latency ([1]; vs control food group): showed a reduced sleep latency, compared to the control food group | ratio of NREM sleep stage 1 (N1) to total sleep time ([1]; vs control food group, FIG. 4, 7): significantly suppressed | number of wake after sleep onset ([1]; vs control food group, FIG. 8, 9): significantly suppressed sleep fragmentation | number of wake after sleep onset in two hours before waking up ([1]; vs control food group, FIG. 10, 11): significantly suppressed sleep fragmentation | NREM sleep latency (time to reach deep sleep) ([1]; vs control food group, FIG. 12, 13): reduced an increase in time to reach deep sleep | 5 power in the first sleep cycle ([1]; vs control food group, FIG. 14, 15): increased 5 power in the first sleep cycle | sleep efficiency ([1]; vs control food group, FIG. 16, 17): increased sleep efficiency | sleep duration ([1]; vs control food group, FIG. 18, 19): increased sleep duration | fragmentation in REM sleep (number of sleep fragmentation episodes) (Sprague-Dawley (SD) rat; light phase, FIG. 2): reduced fragmentation to a level comparable to that of the control group | duration of episode of NREM sleep (NREM) (Sprague-Dawley (SD) rat; [3]): improved these phenomena to the level of the control group without stress induction | duration of episode of REM sleep (REM) (Sprague-Dawley (SD) rat; [3]): improved these phenomena to the level of the control group without stress induction | ratio of NREM sleep duration to total sleep time (Sprague-Dawley (SD) rat): increased the ratio of NREM sleep duration to total sleep time | sleep latency (latency from the start of the light phase to the first episode of NREM sleep) (Sprague-Dawley (SD) rat; FIG. 3): to a level comparable to that of control group without stress induction; also recorded: exhibited an action to reduce an increase in sleep latency | L-ergothioneine concentration in plasma [2]: increased the L-ergothioneine concentration in plasma
